As a reminder, the viability is a read-out of living cells in per cent, often relative to untreated cells.

Common to all, as to assay type: cell-based, human
In one assay the test system is cancer cell lines. As to the kind of experiment: Cell viability analysis (WST-1) on cancer cell lines. To be noted: drug 10 μM, 72 hours; for Inhibitory effect on cancer cell line: WST-1, OD450 nm, Table 2: drugs which do not have significant inhibitory effect; for inhibition effect on different cancer cell lines: WST-1, Table 3. Background: Formazan colour is commonly taken as a measure of viable cells.

Assay [1] concerns HepG2 (Hepatocellular Carcinoma). As to the kind of experiment: Cell viability analysis, hepatic cancer HepG2. Particulars: Homo sapiens, HepG2, 72 h, read-out: cell viability (survival rate), HepG2, drug 10 μM, 72 hours, WST-1, OD450 nm.
In assay [2] the test system is MCF7 (Mammary Gland, Adenocarcinoma). As to the kind of experiment: Cell viability analysis, breast cancer MCF7. To be noted: Homo sapiens, MCF7, 72 h, read-out: cell viability (survival rate), MCF7, drug 10 μM, 72 hours, WST-1, OD450 nm.
In assay [3] the test system is A549 (Lung Adenocarcinoma). As to the kind of experiment: Cell viability analysis, lung cancer A549. To be noted: Homo sapiens, A549, 72 h, read-out: cell viability (survival rate), A549, drug 10 μM, 72 hours, WST-1, OD450 nm.
The subject of assay [4] is AGS (Gastric Adenocarcinoma). Description: Cell viability analysis, gastric cancer AGS. To be noted: Homo sapiens, 72 h, read-out: cell viability (survival rate), AGS, drug 10 μM, 72 hours, WST-1, OD450 nm.
For assay [5], the system named is TSGH-8301 (Urinary Bladder Carcinoma). As to the kind of experiment: Cell viability analysis, bladder cancer TSGH-8301. To be noted: Homo sapiens, 72 h, read-out: cell viability (survival rate), TSGH, drug 10 μM, 72 hours, WST-1, OD450 nm.
Assay [6] relates to PC3 (p53−) (Prostate Adenocarcinoma). As to the kind of experiment: Cell viability analysis, prostate cancer PC3. Particulars: Homo sapiens, 72 h, read-out: cell viability (survival rate), PC3, drug 10 μM, 72 hours, WST-1, OD450 nm.
The subject of assay [7] is HeLa (Cervix Adenocarcinoma). As to the kind of experiment: Cell viability analysis, cervical cancer HeLa. Particulars: Homo sapiens, HeLa, 72 h, read-out: cell viability (survival rate), HeLa, drug 10 μM, 72 hours, WST-1, OD450 nm.
Assay [8] deals with HI650 (Lung Adenocarcinoma). Description: Cell viability analysis, lung cancer HI650. Particulars: Homo sapiens, NCI-H1650, 72 h, read-out: cell viability (survival rate), H1650, drug 10 μM, 72 hours, WST-1, OD450 nm.
Assay [9] concerns LoVo (Colorectal Adenocarcinoma). As to the kind of experiment: Cell viability analysis, colon cancer LoVo. To be noted: Homo sapiens, LoVo.
In assay [10] the test system is A375 (Amelanotic Melanoma). As to the kind of experiment: Cell viability analysis, skin cancer A375. Particulars: Homo sapiens, A-375, 72 h, read-out: cell viability (survival rate), A375, drug 10 μM, 72 hours, WST-1, OD450 nm.
Assay [11] has as its system HL-60 (Acute Promyelocytic Leukemia). As to the kind of experiment: Cell viability analysis, leukemia HL-60. To be noted: Homo sapiens, HL-60, 72 h, read-out: cell viability (survival rate), HL-60, drug 10 μM, 72 hours, WST-1, OD450 nm.
Assay [12] relates to MKN-45 (Gastric Adenocarcinoma). As to the kind of experiment: Cell viability analysis, gastric cancer MKN-45. Particulars: Homo sapiens, MKN-45, 72 h, read-out: cell viability (survival rate), MKN-45, drug 10 μM, 72 hours, WST-1, OD450 nm.
Where [13] appears, read: 72 h, read-out: cell viability (survival rate), LoVo, drug 10 μM, 72 hours, WST-1, OD450 nm.

Structures can show the parent of a compound that is named as a salt. Where two headings read alike, the source gives them in different places.

Take `CCN[C@@H]1C[C@H](N)[C@@H](O[C@H]2OC(CN)=CC[C@H]2N)[C@H](O)[C@H]1O[C@H]1OC[C@](C)(O)[C@H](NC)[C@H]1O.CCN[C@@H]1C[C@H](N)[C@@H](O[C@H]2OC(CN)=CC[C@H]2N)[C@H](O)[C@H]1O[C@H]1OC[C@](C)(O)[C@H](NC)[C@H]1O.O=S(=O)(O)O.O=S(=O)(O)O.O=S(=O)(O)O.O=S(=O)(O)O.O=S(=O)(O)O` [Netilmicin Sulfate]: in the assay on cancer cell lines, the “Inhibitory effect on cancer cell line” value was 0 and the “inhibition effect on different cancer cell lines” value was “significant inhibition effect”.

Take Dabigatran [BIBR-1048 (Dabigatran)]: the “inhibition effect on different cancer cell lines” value in the assay with cancer cell lines is recorded as “significant inhibition effect”.

Take `CCn1cc(C(=O)O)c(=O)c2cc(F)c(N3CCN(C)CC3)cc21` [Pefloxacin mesylate]: in the assay on cancer cell lines, the “inhibition effect on different cancer cell lines” value is reported as “significant inhibition effect”.

With `CO/N=C(\C(=O)N[C@@H]1C(=O)N2C(C(=O)O)=C(Cn3ccc(=N)n3CCO)CS[C@H]12)c1csc(N)n1.O=S(=O)(O)O` [Cefoselis sulfate], in the assay with cancer cell lines, the “Inhibitory effect on cancer cell line” value is given as 0 and the “inhibition effect on different cancer cell lines” value is on record as “significant inhibition effect”.

In the case of Bismuth Subcitrate Potassium, in the assay on cancer cell lines, the “Inhibitory effect on cancer cell line” value is recorded as 0 and the “inhibition effect on different cancer cell lines” value was “significant inhibition effect”.

As for Teicoplanin, the “inhibition effect on different cancer cell lines” value with cancer cell lines is “significant inhibition effect”.

Regarding `NCC[C@H](O)C(=O)N[C@@H]1C[C@H](N)[C@@H](O[C@H]2O[C@H](CN)[C@@H](O)[C@H](O)[C@H]2O)[C@H](O)[C@H]1O[C@H]1O[C@H](CO)[C@@H](O)[C@H](N)[C@H]1O.O=S(=O)(O)O.O=S(=O)(O)O` [Amikacin sulfate], in the assay with cancer cell lines, the “inhibition effect on different cancer cell lines” value is on record as “significant inhibition effect”.

For the molecule Meclocycline Sulfosalicylate, the “inhibition effect on different cancer cell lines” value in the assay on cancer cell lines is “significant inhibition effect”.

For the molecule `CCn1cc(C(=O)O)c(=O)c2cc(F)c(N3CCNC(C)C3)c(F)c21` (centres unmarked) [Lomefloxacin hydrochloride (Maxaquin), Lomefloxacin hydrochloride], the “inhibition effect on different cancer cell lines” value in the assay on cancer cell lines is given as “significant inhibition effect”.

For the molecule `Cc1nccn1CC1CCc2c(c3ccccc3n2C)C1=O` (centres unmarked) [Ondansetron hydrochloride (Zofran), Ondansetron hydrochloride], the “inhibition effect on different cancer cell lines” value in the assay on cancer cell lines is reported as “significant inhibition effect”.

`NNC(=O)c1ccncc1.Nc1ccc(C(=O)O)c(O)c1` [Pasiniazid]: the “inhibition effect on different cancer cell lines” value with cancer cell lines is reported as “significant inhibition effect”.

On to `CCCCCCCCCCCCCCCC(=O)O[C@@H]1[C@@H](O)[C@@H](O)[C@@H]([C@H](NC(=O)[C@@H]2C[C@@H](CCC)CN2C)[C@H](C)Cl)O[C@@H]1SC.Cl` [Clindamycin palmitate HCl], for which the “inhibition effect on different cancer cell lines” value in the assay on cancer cell lines is listed as “significant inhibition effect”.

As to `CC(C)CN(C[C@@H](O)[C@H](Cc1ccccc1)NC(=O)O[C@H]1CO[C@H]2OCC[C@H]21)S(=O)(=O)c1ccc(N)cc1.CCO` [Darunavir Ethanolate (Prezista), Darunavir Ethanolate], the “inhibition effect on different cancer cell lines” value in the assay with cancer cell lines is recorded as “significant inhibition effect”.

Take `Cl.NC1CCN(c2c(F)cc3c(=O)c(C(=O)O)cn(C4CC4)c3c2Cl)C1` (centres unmarked) [Clinafoxacin HCl]: the “inhibition effect on different cancer cell lines” value in the assay on cancer cell lines was “significant inhibition effect”.

With `N[C@@H]1CONC1=O` [D-Cycloserine], the “inhibition effect on different cancer cell lines” value with cancer cell lines is listed as “significant inhibition effect”.

`Cc1cccn2c(=O)c(-c3nnn[nH]3)cnc12` [Pemirolast (BMY 26517) potassium, Pemirolast potassium]: the viability at 10 µM in assay [1] was found to be 82.1%; in assay [2] it was 83.2%; in assay [3], 82.9%; in assay [4], 69.4%; in assay [5], 93.7%; in assay [6] it was 53.8%. For the same molecule, the viability at 10 µM was 88.4% in assay [7], 81.8% in assay [8], 107% in [9] (setting [13]) and 70.8% in assay [10]. For the same molecule, the “inhibition effect on different cancer cell lines” value in the assay with cancer cell lines is on record as “significant inhibition effect”.

In the case of `NC(=O)c1cnccn1` [Pyrazinamide (Pyrazinoic acid amide), Pyrazinamide], the “inhibition effect on different cancer cell lines” value with cancer cell lines is recorded as “significant inhibition effect”.

Turning to `CN(C/C=C/C#CC(C)(C)C)Cc1cccc2ccccc12` [Terbinafine hydrochloride (Lamisil), Terbinafine hydrochloride], the “inhibition effect on different cancer cell lines” value in the assay with cancer cell lines is given as “significant inhibition effect”.

Regarding `CCC[C@@H]1C[C@@H](C(=O)N[C@@H]([C@H]2O[C@H](SC)[C@H](OP(=O)(O)O)[C@@H](O)[C@H]2O)[C@H](C)Cl)N(C)C1` [Clindamycin phosphate], the viability at 10 µM was 90.2% in [1]; 38.3% in [2]; 31% in assay [3]; 91.6% in assay [4]; 79.6% in [5]; 40% in assay [6]. In addition, the viability at 10 µM in [7] was 61.4%; in [8], 87%; in [9] (setting [13]) it was 44.4%; in assay [11] it was 110%; in assay [12] it was 85.6%; in assay [10], 81.3%.

Turning to `Nc1ccn([C@@H]2CS[C@H](CO)O2)c(=O)n1` [Lamivudine (Epivir), Lamivudine], the viability at 10 µM came out at 108% in assay [1]; 83.2% in assay [2]; 75.2% in assay [3]; 44.7% in [4]; 71.1% in assay [5]; 110% in [6]. Further, the viability at 10 µM in assay [7] was 86.4%; in assay [8] it was 54.1%; in assay [9] (setting [13]), 71.3%; in [11] it was 119%; in assay [12] it was 47.7%; in assay [10] it was 95.8%.

As for `CC[C@H]1OC(=O)[C@H](C)[C@@H](O[C@H]2C[C@@](C)(OC)[C@@H](O)[C@H](C)O2)[C@H](C)[C@@H](O[C@@H]2O[C@H](C)C[C@H](N(C)C)[C@H]2O)[C@](C)(O)C[C@@H](C)[C@@H]2N[C@@H](COCCOC)O[C@H]([C@H]2C)[C@]1(C)O` [Dirithromycin], the viability at 10 µM in assay [1] was found to be 90.6%; in assay [2], 62.6%; in assay [3], 64.8%; in [4] it was 63.2%; in assay [5] it was 77.2%; in assay [6], 77.1%. For the same molecule, the viability at 10 µM came to 91.9% in assay [7]; 65.5% in assay [8]; 83.7% in assay [9] (setting [13]); 90.2% in assay [11]; 106% in assay [12]; 83.7% in assay [10].

With `CC1(C)[C@H](C(=O)[O-])N2C(=O)C[C@H]2S1(=O)=O.[Na+]` [Sulbactam sodium (Unasyn), Sulbactam sodium], the “inhibition effect on different cancer cell lines” value in the assay with cancer cell lines is on record as “significant inhibition effect”.

For the molecule Spiramycin, the “inhibition effect on different cancer cell lines” value in the assay on cancer cell lines is given as “significant inhibition effect”.

As to `CC1(C)[C@H](C(=O)O)N2C(=O)C[C@H]2S1(=O)=O` [Sulbactam], in the assay on cancer cell lines, the “inhibition effect on different cancer cell lines” value is listed as “significant inhibition effect”. Besides, the viability at 10 µM in assay [9] (drug 10 μM, 72 hours, WST-1, OD450 nm, read-out: cell viability (survival rate), LoVo) is 81.7%.
